Laboratory results as given in the NIST ThermoML archive (doi:10.1016/j.jct.2016.03.026).

Experiment: xn = mol fraction of the nth substance listed
Details: 263.15 K, Fluid (supercritical or subcritical phases), Vibrating tube method, x1 = 0.97

O=C=O [carbon dioxide] + CO
Details | mass density [kg/m3]
13625 kPa | 1031.69
13650 kPa | 1031.77
13675 kPa | 1031.94
13700 kPa | 1031.97
13725 kPa | 1032.1
13750 kPa | 1032.18
13775 kPa | 1032.26
13800 kPa | 1032.34
13825 kPa | 1032.42
13850 kPa | 1032.53
13875 kPa | 1032.61
13900 kPa | 1032.75
13925 kPa | 1032.83
13950 kPa | 1032.91
13975 kPa | 1032.99
14000 kPa | 1033.08
14025 kPa | 1033.16
14050 kPa | 1033.24
14075 kPa | 1033.38
14100 kPa | 1033.48
14125 kPa | 1033.57
14150 kPa | 1033.65
14175 kPa | 1033.73
14200 kPa | 1033.81
14225 kPa | 1033.9
14250 kPa | 1033.97
14275 kPa | 1034.13
14300 kPa | 1034.22
14325 kPa | 1034.3
14350 kPa | 1034.38
14375 kPa | 1034.46
14400 kPa | 1034.54
14425 kPa | 1034.62
14450 kPa | 1034.7
14475 kPa | 1034.86
14500 kPa | 1034.95
14525 kPa | 1035.03
14550 kPa | 1035.11
14575 kPa | 1035.19
14600 kPa | 1035.28
14625 kPa | 1035.36
14650 kPa | 1035.44
14675 kPa | 1035.52
14700 kPa | 1035.62
14725 kPa | 1035.77
14750 kPa | 1035.83
14775 kPa | 1035.93
14800 kPa | 1036.01
14825 kPa | 1036.09
14850 kPa | 1036.17
14875 kPa | 1036.25
14900 kPa | 1036.34
14925 kPa | 1036.42
14950 kPa | 1036.51
14975 kPa | 1036.63
15000 kPa | 1036.74
15025 kPa | 1036.78
15050 kPa | 1036.9
15075 kPa | 1036.96
15100 kPa | 1037.07
15125 kPa | 1037.15
15150 kPa | 1037.23
15175 kPa | 1037.31
15200 kPa | 1037.39
15225 kPa | 1037.5
15250 kPa | 1037.56
15275 kPa | 1037.66
15300 kPa | 1037.72
15325 kPa | 1037.8
15350 kPa | 1037.91
15375 kPa | 1038.01
15400 kPa | 1038.07
15425 kPa | 1038.19
15450 kPa | 1038.28
15475 kPa | 1038.37
15500 kPa | 1038.45
15525 kPa | 1038.53
15550 kPa | 1038.61
15575 kPa | 1038.7
15600 kPa | 1038.78
15625 kPa | 1038.86
15650 kPa | 1038.94
15675 kPa | 1039.02
15700 kPa | 1039.1
15725 kPa | 1039.19
15750 kPa | 1039.26
15775 kPa | 1039.35
15800 kPa | 1039.43
15825 kPa | 1039.51
15850 kPa | 1039.61
15875 kPa | 1039.7
15900 kPa | 1039.79
15925 kPa | 1039.88
15950 kPa | 1039.97
15975 kPa | 1040.06
16000 kPa | 1040.16
16025 kPa | 1040.2
16050 kPa | 1040.31
16075 kPa | 1040.4
16100 kPa | 1040.49
16125 kPa | 1040.57
16150 kPa | 1040.65
16175 kPa | 1040.73
16200 kPa | 1040.81
16225 kPa | 1040.89
16250 kPa | 1040.97
16275 kPa | 1041.05
16300 kPa | 1041.16
16325 kPa | 1041.25
16350 kPa | 1041.32
16375 kPa | 1041.38
16400 kPa | 1041.46
16425 kPa | 1041.59
16450 kPa | 1041.66
16475 kPa | 1041.72
16500 kPa | 1041.79
16525 kPa | 1041.91
16550 kPa | 1041.95
16575 kPa | 1042.08
16600 kPa | 1042.19
16625 kPa | 1042.27
16650 kPa | 1042.33
16675 kPa | 1042.38
16700 kPa | 1042.51
16725 kPa | 1042.57
16750 kPa | 1042.68
16775 kPa | 1042.75
16800 kPa | 1042.82
16825 kPa | 1042.91
16850 kPa | 1043.01
16875 kPa | 1043.08
16900 kPa | 1043.17
16925 kPa | 1043.24
16950 kPa | 1043.33
16975 kPa | 1043.4
17000 kPa | 1043.49
17025 kPa | 1043.57
17050 kPa | 1043.64
17075 kPa | 1043.74
17100 kPa | 1043.82
17125 kPa | 1043.9
17150 kPa | 1043.98
17175 kPa | 1044.06
17200 kPa | 1044.14
17225 kPa | 1044.22
17250 kPa | 1044.31
17275 kPa | 1044.39
17300 kPa | 1044.44
17325 kPa | 1044.55
17350 kPa | 1044.63
17375 kPa | 1044.71
17400 kPa | 1044.79
17425 kPa | 1044.87
17450 kPa | 1044.94
17475 kPa | 1045.04
17500 kPa | 1045.12
17525 kPa | 1045.2
17550 kPa | 1045.28
17575 kPa | 1045.33
17600 kPa | 1045.44
17625 kPa | 1045.52
17650 kPa | 1045.61
17675 kPa | 1045.69
17700 kPa | 1045.77
17725 kPa | 1045.81
17750 kPa | 1045.89
17775 kPa | 1045.97
17800 kPa | 1046.04
17825 kPa | 1046.11
17850 kPa | 1046.26
17875 kPa | 1046.32
17900 kPa | 1046.37
17925 kPa | 1046.44
17950 kPa | 1046.51
17975 kPa | 1046.58
18000 kPa | 1046.66
18025 kPa | 1046.79
18050 kPa | 1046.85
18075 kPa | 1046.9
18100 kPa | 1046.98
18125 kPa | 1047.07
18150 kPa | 1047.15
18175 kPa | 1047.23
18200 kPa | 1047.31
18225 kPa | 1047.37
18250 kPa | 1047.47
18275 kPa | 1047.55
18300 kPa | 1047.62
18325 kPa | 1047.69
18350 kPa | 1047.75
18375 kPa | 1047.82
18400 kPa | 1047.88
18425 kPa | 1047.96
18450 kPa | 1048.04
18475 kPa | 1048.11
18500 kPa | 1048.2
18525 kPa | 1048.28
18550 kPa | 1048.31
18575 kPa | 1048.43
18600 kPa | 1048.53
18625 kPa | 1048.58
18650 kPa | 1048.64
18675 kPa | 1048.74
18700 kPa | 1048.83
18725 kPa | 1048.85
18750 kPa | 1048.93
18775 kPa | 1048.93
18800 kPa | 1049.06
18825 kPa | 1049.09
18850 kPa | 1049.34
18875 kPa | 1049.42
18900 kPa | 1049.5
18925 kPa | 1049.58
18950 kPa | 1049.66
18975 kPa | 1049.74
19000 kPa | 1049.82
19025 kPa | 1049.91
19050 kPa | 1049.99
19075 kPa | 1050.07
19100 kPa | 1050.15
19125 kPa | 1050.23
19150 kPa | 1050.31
19175 kPa | 1050.39
19200 kPa | 1050.47
19225 kPa | 1050.56
19250 kPa | 1050.63
19275 kPa | 1050.72
19300 kPa | 1050.8
19325 kPa | 1050.88
19350 kPa | 1050.96
19375 kPa | 1051.04
19400 kPa | 1051.12
19425 kPa | 1051.21
19450 kPa | 1051.29
19475 kPa | 1051.35
19500 kPa | 1051.45
19525 kPa | 1051.53
19550 kPa | 1051.58
19575 kPa | 1051.69
19600 kPa | 1051.77
19625 kPa | 1051.83
19650 kPa | 1051.89
19675 kPa | 1052.02
